Assay results: PMC12621043, “Un-LOK-ing a New Approach for Conformational Selective Targeting of STK10 (LOK)” (ACS Medicinal Chemistry Letters, 2025)

Target: T1, PIM3A (Homo sapiens, UniProt Q86V86)
T1 construct: purchased in-house DSF kinase panel (SGC-style construct names; the trailing letter is the construct ID)
Test: DSF Tm panel
Format: binding
Details: 10 μM compound

| ΔTm at 10 µM [°C] | SMILES |
| --- | --- |
| -4.8 | COc1ccc(CNC(=O)Nc2ccc3cc2OCCOCCNc2ccn4ncc-3c4n2)cc1F [compound 32] |
| 5.1 | COc1cc(CNC(=O)Nc2ccc3cc2OCCOCCNc2ccn4ncc-3c4n2)ccc1F [compound 33] |
| 4.4 | C[C@H](NC(=O)Nc1ccc2cc1OCCOCCNc1ccn3ncc-2c3n1)c1ccccc1 [compound 34] |
| 1.6 | CN1CCN(C(=O)Nc2ccc3cc2OCCOCCNc2ccn4ncc-3c4n2)CC1 [compound 35] |

Target: T2, BMX (BMXA) (Homo sapiens, UniProt P51813)
T2 construct: purchased in-house DSF kinase panel (SGC-style construct names; the trailing letter is the construct ID)
Test: DSF Tm panel
Format: binding
Details: 10 μM compound

T2 sequence (P51813 411-675): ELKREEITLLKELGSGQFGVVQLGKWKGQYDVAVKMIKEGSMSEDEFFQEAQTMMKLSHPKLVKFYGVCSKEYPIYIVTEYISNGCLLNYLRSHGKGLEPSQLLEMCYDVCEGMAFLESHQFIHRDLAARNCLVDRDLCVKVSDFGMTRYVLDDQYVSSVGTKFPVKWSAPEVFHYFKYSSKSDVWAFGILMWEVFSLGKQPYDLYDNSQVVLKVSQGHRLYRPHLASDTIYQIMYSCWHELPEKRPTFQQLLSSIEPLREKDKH

| ΔTm at 10 µM [°C] | SMILES |
| --- | --- |
| 1.1 | COc1ccc(CNC(=O)Nc2ccc3cc2OCCOCCNc2ccn4ncc-3c4n2)cc1F [compound 32] |
| 0.3 | COc1cc(CNC(=O)Nc2ccc3cc2OCCOCCNc2ccn4ncc-3c4n2)ccc1F [compound 33] |
| 0.1 | C[C@H](NC(=O)Nc1ccc2cc1OCCOCCNc1ccn3ncc-2c3n1)c1ccccc1 [compound 34] |
| 0.3 | CN1CCN(C(=O)Nc2ccc3cc2OCCOCCNc2ccn4ncc-3c4n2)CC1 [compound 35] |

Target: T3, PLK4A (Homo sapiens, UniProt O00444)
T3 construct: purchased in-house DSF kinase panel (SGC-style construct names; the trailing letter is the construct ID)
T3 sequence (O00444 2-275): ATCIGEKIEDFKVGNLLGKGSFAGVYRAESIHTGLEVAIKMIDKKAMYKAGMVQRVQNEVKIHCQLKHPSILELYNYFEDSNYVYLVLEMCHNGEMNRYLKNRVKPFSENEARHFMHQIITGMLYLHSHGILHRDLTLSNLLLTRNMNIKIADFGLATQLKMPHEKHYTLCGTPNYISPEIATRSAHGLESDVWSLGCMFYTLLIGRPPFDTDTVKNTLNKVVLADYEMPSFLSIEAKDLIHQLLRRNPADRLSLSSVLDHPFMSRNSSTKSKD
Test: DSF Tm panel
Format: binding
Details: 10 μM compound

| ΔTm at 10 µM [°C] | SMILES |
| --- | --- |
| 4.6 | COc1ccc(CNC(=O)Nc2ccc3cc2OCCOCCNc2ccn4ncc-3c4n2)cc1F [compound 32] |
| 5.5 | COc1cc(CNC(=O)Nc2ccc3cc2OCCOCCNc2ccn4ncc-3c4n2)ccc1F [compound 33] |
| 4.7 | C[C@H](NC(=O)Nc1ccc2cc1OCCOCCNc1ccn3ncc-2c3n1)c1ccccc1 [compound 34] |
| 3 | CN1CCN(C(=O)Nc2ccc3cc2OCCOCCNc2ccn4ncc-3c4n2)CC1 [compound 35] |

Target: T4, CAMK4A (Homo sapiens, UniProt Q16566)
T4 construct: purchased in-house DSF kinase panel (SGC-style construct names; the trailing letter is the construct ID)
T4 sequence (Q16566 1-473): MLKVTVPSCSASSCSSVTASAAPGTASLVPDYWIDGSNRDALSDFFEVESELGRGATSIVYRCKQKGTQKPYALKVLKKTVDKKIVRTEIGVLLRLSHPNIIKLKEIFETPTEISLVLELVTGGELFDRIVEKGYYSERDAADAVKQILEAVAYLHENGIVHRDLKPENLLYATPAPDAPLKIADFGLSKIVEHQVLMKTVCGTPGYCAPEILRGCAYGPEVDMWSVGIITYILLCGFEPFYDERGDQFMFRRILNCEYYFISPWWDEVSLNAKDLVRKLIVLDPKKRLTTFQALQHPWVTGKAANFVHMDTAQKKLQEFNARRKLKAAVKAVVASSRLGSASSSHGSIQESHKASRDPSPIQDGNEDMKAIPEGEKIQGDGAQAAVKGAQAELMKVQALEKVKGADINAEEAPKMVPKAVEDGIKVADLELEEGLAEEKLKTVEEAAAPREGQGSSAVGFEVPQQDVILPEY
Test: DSF Tm panel
Format: binding
Details: 10 μM compound

| ΔTm at 10 µM [°C] | SMILES |
| --- | --- |
| 0.9 | COc1ccc(CNC(=O)Nc2ccc3cc2OCCOCCNc2ccn4ncc-3c4n2)cc1F [compound 32] |
| 1 | COc1cc(CNC(=O)Nc2ccc3cc2OCCOCCNc2ccn4ncc-3c4n2)ccc1F [compound 33] |
| 0.6 | C[C@H](NC(=O)Nc1ccc2cc1OCCOCCNc1ccn3ncc-2c3n1)c1ccccc1 [compound 34] |
| 0 | CN1CCN(C(=O)Nc2ccc3cc2OCCOCCNc2ccn4ncc-3c4n2)CC1 [compound 35] |

Target: T5, PAK4A (Homo sapiens, UniProt O96013)
T5 construct: purchased in-house DSF kinase panel (SGC-style construct names; the trailing letter is the construct ID)
Test: DSF Tm panel
Format: binding
Details: 10 μM compound

T5 sequence (O96013 291-591): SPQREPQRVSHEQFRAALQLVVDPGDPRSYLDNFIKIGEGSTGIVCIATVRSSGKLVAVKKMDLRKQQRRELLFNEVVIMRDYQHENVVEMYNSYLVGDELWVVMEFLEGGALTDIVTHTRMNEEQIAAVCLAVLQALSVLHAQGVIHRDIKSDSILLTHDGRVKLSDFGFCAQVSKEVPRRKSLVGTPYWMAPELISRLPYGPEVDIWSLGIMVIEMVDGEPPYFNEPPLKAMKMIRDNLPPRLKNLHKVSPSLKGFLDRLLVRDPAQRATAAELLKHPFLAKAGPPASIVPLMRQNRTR

| ΔTm at 10 µM [°C] | SMILES |
| --- | --- |
| 2 | COc1ccc(CNC(=O)Nc2ccc3cc2OCCOCCNc2ccn4ncc-3c4n2)cc1F [compound 32] |
| 2.2 | COc1cc(CNC(=O)Nc2ccc3cc2OCCOCCNc2ccn4ncc-3c4n2)ccc1F [compound 33] |
| 1.4 | C[C@H](NC(=O)Nc1ccc2cc1OCCOCCNc1ccn3ncc-2c3n1)c1ccccc1 [compound 34] |
| -0.3 | CN1CCN(C(=O)Nc2ccc3cc2OCCOCCNc2ccn4ncc-3c4n2)CC1 [compound 35] |

Target: T6, CHEK2A (Homo sapiens, UniProt O96017)
T6 construct: purchased in-house DSF kinase panel (SGC-style construct names; the trailing letter is the construct ID)
Test: DSF Tm panel
Format: binding
Details: 10 μM compound

T6 sequence (O96017 210-531): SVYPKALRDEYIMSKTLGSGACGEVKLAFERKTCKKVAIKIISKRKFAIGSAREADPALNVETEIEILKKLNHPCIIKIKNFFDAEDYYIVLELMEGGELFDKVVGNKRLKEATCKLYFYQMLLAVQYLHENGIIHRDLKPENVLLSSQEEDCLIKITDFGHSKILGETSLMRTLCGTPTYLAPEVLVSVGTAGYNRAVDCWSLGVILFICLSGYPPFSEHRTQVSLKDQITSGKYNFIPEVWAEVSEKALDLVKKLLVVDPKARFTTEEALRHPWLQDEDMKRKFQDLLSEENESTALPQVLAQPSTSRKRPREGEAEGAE

| ΔTm at 10 µM [°C] | SMILES |
| --- | --- |
| 6.8 | COc1ccc(CNC(=O)Nc2ccc3cc2OCCOCCNc2ccn4ncc-3c4n2)cc1F [compound 32] |
| 6.5 | COc1cc(CNC(=O)Nc2ccc3cc2OCCOCCNc2ccn4ncc-3c4n2)ccc1F [compound 33] |
| 6.3 | C[C@H](NC(=O)Nc1ccc2cc1OCCOCCNc1ccn3ncc-2c3n1)c1ccccc1 [compound 34] |
| 0.8 | CN1CCN(C(=O)Nc2ccc3cc2OCCOCCNc2ccn4ncc-3c4n2)CC1 [compound 35] |

Target: T7, FGFR1B (Homo sapiens, UniProt P11362)
T7 construct: purchased in-house DSF kinase panel (SGC-style construct names; the trailing letter is the construct ID)
Test: DSF Tm panel
Format: binding
Details: 10 μM compound

T7 sequence (P11362 456-767): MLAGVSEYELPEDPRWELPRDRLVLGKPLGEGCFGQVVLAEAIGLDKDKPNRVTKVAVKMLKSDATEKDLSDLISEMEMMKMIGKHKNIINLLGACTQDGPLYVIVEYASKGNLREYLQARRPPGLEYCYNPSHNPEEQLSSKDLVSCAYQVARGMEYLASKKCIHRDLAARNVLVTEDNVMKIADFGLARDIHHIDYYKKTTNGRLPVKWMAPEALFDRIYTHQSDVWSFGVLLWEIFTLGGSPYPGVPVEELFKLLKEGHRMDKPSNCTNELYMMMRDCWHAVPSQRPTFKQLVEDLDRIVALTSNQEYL

| ΔTm at 10 µM [°C] | SMILES |
| --- | --- |
| 1.2 | COc1ccc(CNC(=O)Nc2ccc3cc2OCCOCCNc2ccn4ncc-3c4n2)cc1F [compound 32] |
| 1.9 | COc1cc(CNC(=O)Nc2ccc3cc2OCCOCCNc2ccn4ncc-3c4n2)ccc1F [compound 33] |
| 1.2 | C[C@H](NC(=O)Nc1ccc2cc1OCCOCCNc1ccn3ncc-2c3n1)c1ccccc1 [compound 34] |
| 0.7 | CN1CCN(C(=O)Nc2ccc3cc2OCCOCCNc2ccn4ncc-3c4n2)CC1 [compound 35] |

Target: T8, CLK3A (Homo sapiens, UniProt P49761)
T8 construct: purchased in-house DSF kinase panel (SGC-style construct names; the trailing letter is the construct ID)
Test: DSF Tm panel
Format: binding
Details: 10 μM compound

T8 sequence (P49761 127-484): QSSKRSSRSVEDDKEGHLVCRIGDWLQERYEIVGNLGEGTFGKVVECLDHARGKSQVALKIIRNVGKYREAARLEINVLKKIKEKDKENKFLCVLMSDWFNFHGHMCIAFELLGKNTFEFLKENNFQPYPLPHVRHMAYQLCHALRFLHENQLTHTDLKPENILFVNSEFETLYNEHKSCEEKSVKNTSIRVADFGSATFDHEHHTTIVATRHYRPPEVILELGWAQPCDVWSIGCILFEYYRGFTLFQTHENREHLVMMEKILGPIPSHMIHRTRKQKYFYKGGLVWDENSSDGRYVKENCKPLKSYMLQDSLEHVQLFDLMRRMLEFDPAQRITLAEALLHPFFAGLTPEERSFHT

| ΔTm at 10 µM [°C] | SMILES |
| --- | --- |
| 0.2 | COc1ccc(CNC(=O)Nc2ccc3cc2OCCOCCNc2ccn4ncc-3c4n2)cc1F [compound 32] |
| 0.5 | COc1cc(CNC(=O)Nc2ccc3cc2OCCOCCNc2ccn4ncc-3c4n2)ccc1F [compound 33] |
| 0 | C[C@H](NC(=O)Nc1ccc2cc1OCCOCCNc1ccn3ncc-2c3n1)c1ccccc1 [compound 34] |
| 0.7 | CN1CCN(C(=O)Nc2ccc3cc2OCCOCCNc2ccn4ncc-3c4n2)CC1 [compound 35] |

Target: T9, MAP2K4A (Homo sapiens, UniProt P45985)
T9 construct: purchased in-house DSF kinase panel (SGC-style construct names; the trailing letter is the construct ID)
T9 sequence (P45985 102-367): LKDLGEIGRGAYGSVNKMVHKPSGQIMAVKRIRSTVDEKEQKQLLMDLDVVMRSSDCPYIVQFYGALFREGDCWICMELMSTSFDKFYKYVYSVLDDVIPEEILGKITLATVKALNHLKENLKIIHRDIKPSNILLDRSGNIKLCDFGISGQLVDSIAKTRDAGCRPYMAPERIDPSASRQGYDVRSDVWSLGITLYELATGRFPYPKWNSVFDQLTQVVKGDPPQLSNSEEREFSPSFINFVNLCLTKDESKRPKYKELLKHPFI
Test: DSF Tm panel
Format: binding
Details: 10 μM compound

| ΔTm at 10 µM [°C] | SMILES |
| --- | --- |
| 4 | COc1ccc(CNC(=O)Nc2ccc3cc2OCCOCCNc2ccn4ncc-3c4n2)cc1F [compound 32] |
| 3.6 | COc1cc(CNC(=O)Nc2ccc3cc2OCCOCCNc2ccn4ncc-3c4n2)ccc1F [compound 33] |
| 3.3 | C[C@H](NC(=O)Nc1ccc2cc1OCCOCCNc1ccn3ncc-2c3n1)c1ccccc1 [compound 34] |
| 1.8 | CN1CCN(C(=O)Nc2ccc3cc2OCCOCCNc2ccn4ncc-3c4n2)CC1 [compound 35] |

Target: T10, STK17AA (Homo sapiens, UniProt Q9UEE5)
T10 construct: purchased in-house DSF kinase panel (SGC-style construct names; the trailing letter is the construct ID)
T10 sequence (Q9UEE5 61-321): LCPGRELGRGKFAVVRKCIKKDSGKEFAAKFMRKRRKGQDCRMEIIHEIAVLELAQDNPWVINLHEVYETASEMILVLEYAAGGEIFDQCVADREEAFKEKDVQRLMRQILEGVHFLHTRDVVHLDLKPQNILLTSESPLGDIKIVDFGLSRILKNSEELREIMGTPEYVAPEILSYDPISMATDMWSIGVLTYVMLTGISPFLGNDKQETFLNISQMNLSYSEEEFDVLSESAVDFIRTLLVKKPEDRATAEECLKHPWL
Test: DSF Tm panel
Format: binding
Details: 10 μM compound

| ΔTm at 10 µM [°C] | SMILES |
| --- | --- |
| 5.3 | COc1ccc(CNC(=O)Nc2ccc3cc2OCCOCCNc2ccn4ncc-3c4n2)cc1F [compound 32] |
| 7.6 | COc1cc(CNC(=O)Nc2ccc3cc2OCCOCCNc2ccn4ncc-3c4n2)ccc1F [compound 33] |
| 6 | C[C@H](NC(=O)Nc1ccc2cc1OCCOCCNc1ccn3ncc-2c3n1)c1ccccc1 [compound 34] |
| 1.7 | CN1CCN(C(=O)Nc2ccc3cc2OCCOCCNc2ccn4ncc-3c4n2)CC1 [compound 35] |

Target: T11, ULK1A (Homo sapiens, UniProt O75385)
T11 construct: purchased in-house DSF kinase panel (SGC-style construct names; the trailing letter is the construct ID)
T11 sequence (O75385 1-283): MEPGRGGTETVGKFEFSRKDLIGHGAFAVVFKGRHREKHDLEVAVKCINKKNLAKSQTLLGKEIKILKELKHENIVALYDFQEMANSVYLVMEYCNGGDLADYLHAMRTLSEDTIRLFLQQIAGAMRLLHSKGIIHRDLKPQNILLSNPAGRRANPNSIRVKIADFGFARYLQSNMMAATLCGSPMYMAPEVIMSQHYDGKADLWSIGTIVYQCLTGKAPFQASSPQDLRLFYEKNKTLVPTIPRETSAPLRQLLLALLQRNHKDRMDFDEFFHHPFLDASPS
Test: DSF Tm panel
Format: binding
Details: 10 μM compound

| ΔTm at 10 µM [°C] | SMILES |
| --- | --- |
| 0.5 | COc1ccc(CNC(=O)Nc2ccc3cc2OCCOCCNc2ccn4ncc-3c4n2)cc1F [compound 32] |
| 0.2 | COc1cc(CNC(=O)Nc2ccc3cc2OCCOCCNc2ccn4ncc-3c4n2)ccc1F [compound 33] |
| -0.1 | C[C@H](NC(=O)Nc1ccc2cc1OCCOCCNc1ccn3ncc-2c3n1)c1ccccc1 [compound 34] |
| 0.2 | CN1CCN(C(=O)Nc2ccc3cc2OCCOCCNc2ccn4ncc-3c4n2)CC1 [compound 35] |
